Reference: the NIST ThermoML archive (doi:10.1016/j.jct.2006.09.012)

Conditions: Liquid, Buoyancy - hydrostatic balance with magnetic suspension - two sinkers

CCOC(F)(C(F)(F)C(F)(F)C(F)(F)F)C(F)(C(F)(F)F)C(F)(F)F (stereo not drawn) [2-trifluoromethyl-3-ethoxydodecafluorohexane]
Conditions	mass density [kg/m3]
285 K, 1204.2 kPa	1650.59
285 K, 1204.8 kPa	1650.6
285 K, 1205.2 kPa	1650.59
285 K, 5212.8 kPa	1659.79
285 K, 5220.2 kPa	1659.81
285 K, 10181 kPa	1670.44
285 K, 10197 kPa	1670.47
308 K, 19845 kPa	1649.2
308.01 K, 1314.5 kPa	1604.24
308.01 K, 1320.9 kPa	1604.26
308.01 K, 1331 kPa	1604.29
308.01 K, 5215.7 kPa	1614.98
308.01 K, 5219.6 kPa	1614.99
308.01 K, 5223.4 kPa	1615
308.01 K, 10450 kPa	1628.17
308.01 K, 10468 kPa	1628.21
308.01 K, 10476 kPa	1628.24
308.01 K, 19786 kPa	1649.07
308.01 K, 19825 kPa	1649.16
350 K, 1285.8 kPa	1515.32
350 K, 1286 kPa	1515.32
350 K, 1286.3 kPa	1515.32
350 K, 1286.4 kPa	1515.32
350 K, 1286.7 kPa	1515.32
350 K, 1286.8 kPa	1515.32
350 K, 5286.1 kPa	1531.01
350 K, 5291 kPa	1531.03
350 K, 10388 kPa	1548.66
350 K, 10394 kPa	1548.69
350 K, 10401 kPa	1548.71
350 K, 16836 kPa	1568.2
350 K, 16850 kPa	1568.24
350 K, 17082 kPa	1568.89
350 K, 19716 kPa	1576.14
350 K, 19732 kPa	1576.18
350 K, 19786 kPa	1576.33
400 K, 1164.3 kPa	1398.22
400 K, 1164.4 kPa	1398.22
400 K, 1164.7 kPa	1398.23
400 K, 5225.5 kPa	1424.08
400 K, 5227.2 kPa	1424.09
400 K, 5228.8 kPa	1424.1
400 K, 9975.6 kPa	1448.91
400 K, 9979.7 kPa	1448.93
400 K, 9984.1 kPa	1448.95
400 K, 19197 kPa	1487.27
400 K, 19208 kPa	1487.3
400 K, 19218 kPa	1487.34
400 K, 19258 kPa	1487.49
400 K, 19276 kPa	1487.55
400 K, 19287 kPa	1487.59
400 K, 19317 kPa	1487.71
400 K, 19328 kPa	1487.74
400 K, 19347 kPa	1487.81
400 K, 19369 kPa	1487.89
400 K, 19380 kPa	1487.93
400 K, 19391 kPa	1487.97
400 K, 19416 kPa	1488.07
400 K, 19495 kPa	1488.35
400 K, 19519 kPa	1488.44
400 K, 19543 kPa	1488.53
400 K, 19560 kPa	1488.59
400 K, 19582 kPa	1488.67
